Our source for the IC50 and Kd values is article PMC4741798, “Imaging of carbonic anhydrase IX with an ^111In-labeled dual-motif inhibitor” (Oncotarget, 2015).

Test [1] deals with T1, CAIX (Homo sapiens, UniProt Q16790).
T1 construct: purchased R&D Systems
The test is described as follows: Competitive fluorescence polarization assay with FITC-labeled 8. Format: binding. As to conditions: 100 nM CAIX, 80 nM 8, 30 min room temperature, triplicate; read-out: IC50 (inhibition of fluorescence polarization of FITC labeled 8). An excerpt:
We synthesized fluorescein isothiocyanate (FITC)-labeled 8 as a standard to measure CAIX binding affinities of the corresponding radiotracers. […] CAIX-selective binding was confirmed by fluorescence microscopic analyses of SK-RC-53 and BxPC3 cells labeled with 8 (Fig. 2). […] In order to test the relative binding of XYIMSR-01 and [^113/115In]XYIMSR-01 to CAIX we modified a competitive fluorescence polarization assay for use with 8. For the competitive binding assay, after optimization for background fluorescence, we chose concentrations of 80 nM and 100 nM for 8 and CAIX, respectively. […] Increasing concentrations of 1, XYIMSR-01 and [^113/115In]XYIMSR-01 were incubated with CAIX for 30 min at room temperature. After 8 was added, fluorescence polarization signal was recorded. […] We took advantage of fluorescence polarization using 8 to measure relative binding affinities for other isoforms of the carbonic anhydrases. We chose to test one cytosolic (CAII) and an additional membrane-localized isoform (CAXII).
Fluorescence polarization (FP) experiments were performed in 21 μL of the assay buffer (12.5 mM Tris-HCl, pH 7.5, 75 mM NaCl) in black flat bottom 384-well microplates (Corning, Inc., New York, NY). The FP reaction employed 100 nM of purified CAIX (R&D systems, Minneapolis, MN) and 80 nM FITC-labeled 8 [27] within the assay buffer. The FP values were measured as mP units using the Victor3 multi-label plate reader equipped with excitation (485 nm) and emission (535 nm) filters (Perkin Elmer, Waltham, MA). 100 nM CAIX was incubated with serially diluted (from 1 μM to 61 fM) concentrations of the three targeting molecules, 1, XYIMSR-01, and [^113/115In]XYIMSR-01 for 30 min at room temperature in 384-well plates. 80 nM 8 was added to each well and the reaction was incubated for 30 min at room temperature followed by FP measurement. Experiments were carried out in triplicate and the concentration resulting in 50% response (IC50) was calculated in GraphPad Prism 5 (GraphPad Software, La Jolla, CA) using the sigmoidal dose-response regression function.
In general terms: Polarisation of emitted light reports the rotation of a fluorescent probe.

Test [2] concerns the target CAIX. Further details: method as in PMID 25698334. The following applies: reported value; cited from earlier work.

A word on the IC50: it is the concentration at which inhibition is half-maximal. In general, Kd refers to the equilibrium constant for the complex coming apart. As for `CC(CCC(=O)N[C@@H](CC(=O)N[C@@H](CC(=O)N[C@@H](CCCCn1cc(CCCC(=O)Nc2nnc(S(N)(=O)=O)s2)nn1)C(=O)NCCOCCOCCN)C(=O)O)C(=O)O)(c1ccc(O)cc1)c1ccc(O)cc1` [Compound 1, N^4-((S)-1-((2-(2-(2-aminoethoxy)ethoxy)ethyl)amino)-1-oxo-6-(4-(4-oxo-4-((5-sulfamoyl-1,3,4-thiadiazol-2-yl)amino)butyl)-1H-1,2,3-triazol-1-yl)hexan-2-yl)-N^2-((S)-3-(4,4-bis(4-hydroxyphenyl)pentanamido)-3-carboxypropanoyl)-L-asparagine, reference compound], the IC50 on CAIX [1] amounted to 0.0759 µM. At CAIX [2], the Kd is 0.0026 µM.

Regarding `CC(CCC(=O)N[C@@H](CC(=O)N[C@@H](CC(=O)N[C@@H](CCCCn1cc(CCCC(=O)Nc2nnc(S(N)(=O)=O)s2)nn1)C(=O)NCCOCCOCCNC(=O)CN1CCN(CC(=O)O)CCN(CC(=O)O)CCN(CC(=O)O)CC1)C(=O)O)C(=O)O)(c1ccc(O)cc1)c1ccc(O)cc1` [XYIMSR-01, 2,2′,2′'-(10-((14S,18S,22S)-18,22-dicarboxy-27,27-bis(4-hydroxyphenyl)-2,13,16,20,24-pentaoxo-14-(4-(4-(4-oxo-4-((5-sulfamoyl-1,3,4-thiadiazol-2-yl)amino)butyl)-1H-1,2,3-triazol-1-yl)butyl)-6,9-dioxa-3,12,15,19,23-pentaazaoctacosyl)-1,4,7,10-tetraazacyclododecane-1,4,7-triyl)triacetic acid], at CAIX [1], the half-maximal inhibitory concentration (IC50) came to 0.067 µM.

Take `CC(CCC(=O)N[C@@H](CC(=O)N[C@@H](CC(=O)N[C@@H](CCCCn1cc(CCCC(=O)Nc2nnc(S(N)(=O)=O)s2)nn1)C(=O)NCCOCCOCCNC(=O)CN1CCN(CC(=O)[O-])CCN(CC(=O)[O-])CCN(CC(=O)[O-])CC1)C(=O)O)C(=O)O)(c1ccc(O)cc1)c1ccc(O)cc1.[In+3]` [[^113/115In]XYIMSR-01, ^113/115Indium(III) 2,2′,2′'-(10-((14S,18S,22S)-18,22-dicarboxy-27,27-bis(4-hydroxyphenyl)-2,13,16,20,24-pentaoxo-14-(4-(4-(4-oxo-4-((5-sulfamoyl-1,3,4-thiadiazol-2-yl)amino)butyl)-1H-1,2,3-triazol-1-yl)butyl)-6,9-dioxa-3,12,15,19,23-pentaazaoctacosyl)-1,4,7,10-tetraazacyclododecane-1,4,7-triyl)triacetate]: at CAIX [1], the half-inhibitory concentration (IC50) worked out at 0.108 µM.
